The NIST ThermoML archive (doi:10.1016/j.jct.2017.10.013)
Values joined by “and” are separate entries in the source; they are usually repeats but may differ in a detail not shown here. Equal entries are not always repeated. ± gives the expanded uncertainty stated by the source.

Columns and labels:
[1] = for molar entropy: 101.33 kPa, Vacuum adiabatic calorimetry; for Triple point temperature: Adiabatic calorimetry
[2] = molar heat capacity at constant pressure; settings: 101.33 kPa, Vacuum adiabatic calorimetry

[Ho+3].[Ho+3].[Se-2].[Se-2].[Se-2] [holmium selenide (Ho2Se3)]
Settings	molar entropy, [1] [J/K/mol]	molar heat capacity at constant pressure, [2]
4.75 K, Crystal 3	–	4.433 ± 0.36 J/K/mol
5 K, Crystal 3	1.64 ± 0.2	5.229 ± 0.44 J/K/mol
5.01 K, Crystal 3	–	4.889 ± 0.41 J/K/mol
5.32 K, Crystal 3	–	7.582 ± 0.62 J/K/mol
6.03 K, Crystal 2	3.189 ± 0.39	12 ± 0.96 J/K/mol and 11.86 ± 0.95 J/K/mol
6.03 K, Crystal 3	3.189 ± 0.39	11.86 ± 0.96 J/K/mol and 12 ± 0.97 J/K/mol
7 K, Crystal 2	–	10.5 ± 0.8 J/K/mol
7.23 K, Crystal 2	–	9.963 ± 0.8 J/K/mol
8 K, Crystal 2	–	6.9 ± 0.6 J/K/mol
8.62 K, Crystal 2	–	9.268 ± 0.74 J/K/mol
9 K, Crystal 2	–	7.3 ± 0.6 J/K/mol
10 K, Crystal 2	8.227 ± 0.99	8.4 ± 0.7 J/K/mol
10.31 K, Crystal 2	–	9.187 ± 0.74 J/K/mol
10.68 K, Crystal 2	–	9.794 ± 0.79 J/K/mol
11.33 K, Crystal 2	–	10.14 ± 0.81 J/K/mol
12.42 K, Crystal 2	–	11.01 ± 0.88 J/K/mol
13.07 K, Crystal 2	–	11.54 ± 0.93 J/K/mol
14.47 K, Crystal 2	–	12.75 ± 1 J/K/mol
15 K, Crystal 2	12.67 ± 1.5	13.14 ± 1.1 J/K/mol
16.86 K, Crystal 2	–	14.62 ± 1.2 J/K/mol
20 K, Crystal 2	17.04 ± 0.23	17.39 ± 0.16 J/K/mol
20.03 K, Crystal 2	–	17.51 ± 0.16 J/K/mol
22.71 K, Crystal 2	–	19.72 ± 0.18 J/K/mol
25 K, Crystal 2	21.4 ± 0.28	22.07 ± 0.19 J/K/mol
25.13 K, Crystal 2	–	22.18 ± 0.19 J/K/mol
28.04 K, Crystal 2	–	25.54 ± 0.22 J/K/mol
30 K, Crystal 2	25.92 ± 0.33	27.86 ± 0.23 J/K/mol
31.2 K, Crystal 2	–	29.55 ± 0.25 J/K/mol
34.35 K, Crystal 2	–	34.03 ± 0.28 J/K/mol
35 K, Crystal 2	30.74 ± 0.38	34.94 ± 0.29 J/K/mol
37.49 K, Crystal 2	–	38.79 ± 0.32 J/K/mol
40 K, Crystal 2	35.91 ± 0.45	42.81 ± 0.36 J/K/mol
40.37 K, Crystal 2	–	43.37 ± 0.36 J/K/mol
43.16 K, Crystal 2	–	48 ± 0.4 J/K/mol
45 K, Crystal 2	41.42 ± 0.51	50.85 ± 0.42 J/K/mol
46.66 K, Crystal 2	–	53.47 ± 0.44 J/K/mol
50 K, Crystal 2	47.18 ± 0.58	58.65 ± 0.48 J/K/mol
51.18 K, Crystal 2	–	60.48 ± 0.5 J/K/mol
55.76 K, Crystal 2	–	66.98 ± 0.55 J/K/mol
59.76 K, Crystal 2	–	72.46 ± 0.59 J/K/mol
60 K, Crystal 2	59.16 ± 0.73	72.86 ± 0.6 J/K/mol
63.99 K, Crystal 2	–	77.76 ± 0.64 J/K/mol
68.39 K, Crystal 2	–	82.55 ± 0.68 J/K/mol
70 K, Crystal 2	71.3 ± 0.88	84.33 ± 0.69 J/K/mol
72.45 K, Crystal 2	–	86.7 ± 0.71 J/K/mol
76.57 K, Crystal 2	–	90.48 ± 0.74 J/K/mol
80 K, Crystal 2	83.16 ± 0.5	93.16 ± 0.37 J/K/mol
80.18 K, Crystal 2	–	93.23 ± 0.37 J/K/mol
85.83 K, Crystal 2	–	97.43 ± 0.39 J/K/mol
90 K, Crystal 2	94.54 ± 0.6	99.99 ± 0.42 J/K/mol
91.8 K, Crystal 2	–	101 ± 0.4 J/K/mol
97.35 K, Crystal 2	–	103.9 ± 0.4 J/K/mol
100 K, Crystal 2	105.4 ± 0.7	105.2 ± 0.4 J/K/mol
102.86 K, Crystal 2	–	106.2 ± 0.4 J/K/mol
108.72 K, Crystal 2	–	108.5 ± 0.5 J/K/mol
110 K, Crystal 2	115.6 ± 0.7	109.2 ± 0.5 J/K/mol
114.93 K, Crystal 2	–	110.9 ± 0.5 J/K/mol
120 K, Crystal 2	125.2 ± 0.8	112.4 ± 0.5 J/K/mol
121.18 K, Crystal 2	–	112.4 ± 0.5 J/K/mol
127.91 K, Crystal 2	–	114.2 ± 0.5 J/K/mol
130 K, Crystal 2	134.3 ± 0.8	114.8 ± 0.5 J/K/mol
135.11 K, Crystal 2	–	115.7 ± 0.5 J/K/mol
140 K, Crystal 2	142.9 ± 0.9	116.5 ± 0.5 J/K/mol
142.05 K, Crystal 2	–	116.8 ± 0.5 J/K/mol
148.79 K, Crystal 2	–	117.9 ± 0.5 J/K/mol
150 K, Crystal 2	151 ± 0.9	117.9 ± 0.5 J/K/mol
155.35 K, Crystal 2	–	118.6 ± 0.5 J/K/mol
160 K, Crystal 2	158.6 ± 0.9	119 ± 0.5 J/K/mol
161.76 K, Crystal 2	–	119.2 ± 0.5 J/K/mol
168.04 K, Crystal 2	–	119.9 ± 0.5 J/K/mol
170 K, Crystal 2	165.9 ± 1	119.9 ± 0.5 J/K/mol
174.8 K, Crystal 2	–	120.3 ± 0.5 J/K/mol
180 K, Crystal 2	172.7 ± 1	120.8 ± 0.5 J/K/mol
182.04 K, Crystal 2	–	120.9 ± 0.5 J/K/mol
189.15 K, Crystal 2	–	121.4 ± 0.5 J/K/mol
190 K, Crystal 2	179.3 ± 1.7	121.5 ± 0.8 J/K/mol
196.14 K, Crystal 2	–	122.1 ± 0.8 J/K/mol
200 K, Crystal 2	185.5 ± 1.7	122.1 ± 0.8 J/K/mol
203.04 K, Crystal 2	–	122.2 ± 0.8 J/K/mol
209.83 K, Crystal 2	–	122.9 ± 0.8 J/K/mol
210 K, Crystal 2	191.5 ± 1.8	122.8 ± 0.8 J/K/mol
216.54 K, Crystal 2	–	123.2 ± 0.8 J/K/mol
217.14 K, Crystal 2	–	123.4 ± 0.8 J/K/mol
220 K, Crystal 2	197.3 ± 1.8	123.6 ± 0.8 J/K/mol
220.38 K, Crystal 2	–	123.3 ± 0.8 J/K/mol
222.96 K, Crystal 2	–	123.9 ± 0.8 J/K/mol
223.16 K, Crystal 2	–	124 ± 0.8 J/K/mol
224.88 K, Crystal 2	–	124.3 ± 0.8 J/K/mol
226.8 K, Crystal 2	–	124.9 ± 0.8 J/K/mol
228.4 K, Crystal 1	201.9 ± 1.9	125 ± 0.8 J/K/mol and 125.2 ± 0.8 J/K/mol
228.4 K, Crystal 2	201.9 ± 1.9	125.2 ± 0.8 J/K/mol and 125 ± 0.8 J/K/mol
229.68 K, Crystal 1	–	124.4 ± 0.8 J/K/mol
229.7 K, Crystal 1	–	124.4 ± 0.8 J/K/mol
230 K, Crystal 1	202.8 ± 1.9	124.3 ± 0.8 J/K/mol
230.95 K, Crystal 1	–	123.6 ± 0.8 J/K/mol
232.22 K, Crystal 1	–	122.9 ± 0.8 J/K/mol
233.8 K, Crystal 1	–	123.6 ± 0.8 J/K/mol
235.69 K, Crystal 1	–	122.7 ± 0.8 J/K/mol
236.16 K, Crystal 1	–	123.1 ± 0.8 J/K/mol
238.19 K, Crystal 1	–	123.1 ± 0.8 J/K/mol
240 K, Crystal 1	208 ± 1.9	123.1 ± 0.8 J/K/mol
241.31 K, Crystal 1	–	123.4 ± 0.8 J/K/mol
242.82 K, Crystal 1	–	122.7 ± 0.8 J/K/mol
244.42 K, Crystal 1	–	123.3 ± 0.8 J/K/mol
249.67 K, Crystal 1	–	123.4 ± 0.5 J/K/mol
250 K, Crystal 1	213 ± 1.3	123.4 ± 0.5 J/K/mol
256.45 K, Crystal 1	–	123.6 ± 0.5 J/K/mol
260 K, Crystal 1	217.9 ± 1.3	123.6 ± 0.5 J/K/mol
263.41 K, Crystal 1	–	123.5 ± 0.5 J/K/mol
270 K, Crystal 1	222.6 ± 1.3	123.7 ± 0.5 J/K/mol
270.54 K, Crystal 1	–	123.7 ± 0.5 J/K/mol
274.01 K, Crystal 1	–	123.6 ± 0.5 J/K/mol
276.98 K, Crystal 1	–	124 ± 0.5 J/K/mol
280 K, Crystal 1	227.1 ± 1.4	123.8 ± 0.5 J/K/mol
280.45 K, Crystal 1	–	123.7 ± 0.5 J/K/mol
284.65 K, Crystal 1	–	124 ± 0.5 J/K/mol
289.2 K, Crystal 1	–	123.9 ± 0.5 J/K/mol
290 K, Crystal 1	231.4 ± 1.4	123.9 ± 0.5 J/K/mol
293.71 K, Crystal 1	–	123.6 ± 0.5 J/K/mol
298.15 K, Crystal 1	234.8 ± 1.4	123.9 ± 0.5 J/K/mol
298.18 K, Crystal 1	–	123.9 ± 0.5 J/K/mol
300 K, Crystal 1	235.6 ± 1.4	123.9 ± 0.5 J/K/mol
302 K, Crystal 1	236.4 ± 1.4	123.9 ± 0.5 J/K/mol
302.6 K, Crystal 1	–	124.2 ± 0.5 J/K/mol

[1]
Settings	Triple point temperature [K]
Crystal 2	228.4 ± 0.05
Crystal 3	6.03 ± 0.05
